# Data taken from patent publication US7279300B2, “Protozoan rhomboid proteins” (priority 2002, dated 2007).
# Assays:
# Pf rhomboid-3 = Pf rhomboid-3 cleavage of GFP-tagged Spitz co-expressed in COS cells (western blot); type: cell-based, Plasmodium falciparum; conditions: serum-free medium supplemented with inhibitor, substrate Spitz
# Method: (§1) Plasmodium rhomboid activity was determined using published methods described in Urban et al Cell (2001) 107(2): 173-82 and WO02/093177. Briefly, Pf rhomboids-1 and -3 were co-expressed with GFP-tagged Spitz under control of a CMV promoter; as follows; COS cells were grown in DMEM medium (supplemented with 10% foetal calf serum), and transfected with FuGENE 6 Transfection Reagent (Roche). Cells were co-transfected in 35 mm culture wells with 25-250 ng of (a) rhomboid construct comprising the Pf-rhomboid-1 or -3 coding sequence inserted into the vector pcDNA 3.1+ (Invitrogen), and (b) substrate construct comprising the GFP-Spitz coding sequence inserted into pcDNA 3.1+ (Invitrogen). Empty plasmid was used to bring the total DNA to 1 μg per well. Construct (b) was transfected into COS cells in the absence of construct (a) as a control for endogenous cleavage of the substrate. 24-30 hours post-transfection, the medium was replaced with serum-free medium; this was harvested 24 hours later and cells were lysed in SDS-sample buffer. For some experiments, the serum-free medium was supplemented with the metalloprotease inhibitor batimastat (British Biotech) or ilomostat (Calbiochem) to minimize endogenous substrate cleavage in the assay. For inhibitor assays, a test compound may be included in the serum-free medium. […]
# Pf rhomboid-1 = Pf rhomboid-1 cleavage of GFP-tagged Spitz co-expressed in COS cells (western blot); type: cell-based, Plasmodium falciparum; conditions: serum-free medium supplemented with inhibitor, substrate Spitz
# Method: as §1
compound,measurement,setting,value
CNC(=O)[C@H](Cc1ccccc1)NC(=O)[C@H](CC(C)C)[C@H](CSc1cccs1)C(=O)NO [batimastat],inhibition of Pf rhomboid-3 cleavage of Spitz,Pf rhomboid-3,not inhibited
same,inhibition of Pf rhomboid-1 cleavage of Spitz,Pf rhomboid-1,not inhibited
